For eleven compounds, Kd results are on record in ChEMBL document CHEMBL3991601, “The target landscape of clinical kinase drugs” (Science, 2017).

The structures appear in SMILES notation. Active and inactive are the calls of the source. Rule as the data show it, for most assays here: actives have a measured Kd and inactives only a lower limit.

Assay [1] addresses Serine/threonine-protein kinase MRCK beta (Homo sapiens, UniProt Q9Y5S2).
Assay [2] concerns the target ATP-dependent RNA helicase DDX3X (Homo sapiens, UniProt O00571).
Another assay deals with T1, Ephrin type-B receptor 3 (Homo sapiens, UniProt P54753).
T1 sequence (P54753 whole entry): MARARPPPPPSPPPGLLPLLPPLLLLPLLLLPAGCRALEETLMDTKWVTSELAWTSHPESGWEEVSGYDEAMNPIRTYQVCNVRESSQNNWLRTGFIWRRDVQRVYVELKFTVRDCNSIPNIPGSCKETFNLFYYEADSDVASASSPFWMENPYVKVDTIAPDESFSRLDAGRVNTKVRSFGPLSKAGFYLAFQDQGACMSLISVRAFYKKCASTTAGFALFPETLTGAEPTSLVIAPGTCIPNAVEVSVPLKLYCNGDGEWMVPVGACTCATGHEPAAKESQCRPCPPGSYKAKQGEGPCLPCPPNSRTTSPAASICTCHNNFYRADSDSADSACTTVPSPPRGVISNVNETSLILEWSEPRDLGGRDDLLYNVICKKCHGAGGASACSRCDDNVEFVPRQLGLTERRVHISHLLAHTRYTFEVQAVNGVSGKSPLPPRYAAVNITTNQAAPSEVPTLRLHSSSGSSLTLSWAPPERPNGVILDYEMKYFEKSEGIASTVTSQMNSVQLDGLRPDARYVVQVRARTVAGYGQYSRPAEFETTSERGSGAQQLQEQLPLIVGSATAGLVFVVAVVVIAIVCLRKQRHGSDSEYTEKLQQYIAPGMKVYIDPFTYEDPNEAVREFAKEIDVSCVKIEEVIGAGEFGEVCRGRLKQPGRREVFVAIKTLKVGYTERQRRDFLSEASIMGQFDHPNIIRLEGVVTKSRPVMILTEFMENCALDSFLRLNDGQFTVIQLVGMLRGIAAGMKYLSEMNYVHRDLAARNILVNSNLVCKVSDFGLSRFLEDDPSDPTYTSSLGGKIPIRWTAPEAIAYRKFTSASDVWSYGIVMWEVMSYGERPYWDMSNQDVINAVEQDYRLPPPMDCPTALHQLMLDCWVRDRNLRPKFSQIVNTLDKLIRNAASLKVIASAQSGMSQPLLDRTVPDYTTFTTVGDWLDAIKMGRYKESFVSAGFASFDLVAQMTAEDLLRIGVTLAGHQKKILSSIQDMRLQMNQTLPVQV

The target of assay [3] is T2, Inhibitor of nuclear factor kappa-B kinase subunit epsilon (Homo sapiens, UniProt Q14164).
T2 sequence (Q14164 whole entry): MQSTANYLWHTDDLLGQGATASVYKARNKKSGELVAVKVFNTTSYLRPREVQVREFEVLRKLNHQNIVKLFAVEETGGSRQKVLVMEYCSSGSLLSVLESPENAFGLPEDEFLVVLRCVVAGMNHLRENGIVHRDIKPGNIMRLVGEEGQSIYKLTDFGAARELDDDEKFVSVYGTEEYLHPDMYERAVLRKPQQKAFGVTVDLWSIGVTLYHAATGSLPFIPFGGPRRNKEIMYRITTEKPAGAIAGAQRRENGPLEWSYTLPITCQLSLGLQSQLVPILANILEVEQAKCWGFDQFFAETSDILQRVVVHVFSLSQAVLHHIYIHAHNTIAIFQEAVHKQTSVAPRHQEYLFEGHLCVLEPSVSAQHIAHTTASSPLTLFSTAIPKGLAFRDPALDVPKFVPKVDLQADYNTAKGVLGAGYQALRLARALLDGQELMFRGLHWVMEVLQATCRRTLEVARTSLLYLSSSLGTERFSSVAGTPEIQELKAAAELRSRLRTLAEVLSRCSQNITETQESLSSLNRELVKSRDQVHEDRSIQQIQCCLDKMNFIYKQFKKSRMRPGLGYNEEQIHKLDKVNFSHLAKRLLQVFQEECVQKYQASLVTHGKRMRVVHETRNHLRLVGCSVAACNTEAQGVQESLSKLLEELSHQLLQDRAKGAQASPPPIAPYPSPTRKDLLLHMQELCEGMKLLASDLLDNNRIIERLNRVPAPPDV

Assay [4] has as its target Tyrosine-protein kinase JAK1 (Homo sapiens, UniProt P23458).
Assay [5] addresses Mitogen-activated protein kinase kinase kinase 4 (Homo sapiens, UniProt Q9Y6R4).
Assay [6] deals with Serine/threonine-protein kinase 26 (Homo sapiens, UniProt Q9P289).
Assay [7] concerns the target T3, Serine/threonine-protein kinase 3 (Homo sapiens, UniProt Q13188).
T3 sequence (Q13188 whole entry): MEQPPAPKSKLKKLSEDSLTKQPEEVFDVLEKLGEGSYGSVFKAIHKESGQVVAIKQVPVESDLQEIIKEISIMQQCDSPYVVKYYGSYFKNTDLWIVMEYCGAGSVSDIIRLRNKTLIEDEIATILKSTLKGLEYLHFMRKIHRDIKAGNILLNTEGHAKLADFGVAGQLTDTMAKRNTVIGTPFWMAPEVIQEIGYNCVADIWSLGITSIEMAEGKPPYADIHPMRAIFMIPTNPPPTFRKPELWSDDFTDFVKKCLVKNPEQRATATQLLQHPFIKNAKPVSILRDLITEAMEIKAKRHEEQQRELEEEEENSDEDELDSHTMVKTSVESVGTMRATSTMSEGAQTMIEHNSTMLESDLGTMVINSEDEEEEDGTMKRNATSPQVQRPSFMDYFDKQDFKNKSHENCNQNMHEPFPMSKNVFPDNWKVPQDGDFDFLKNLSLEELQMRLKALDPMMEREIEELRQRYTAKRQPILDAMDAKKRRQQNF

The target in assay [8] is T4, Tyrosine--tRNA ligase, cytoplasmic (Homo sapiens, UniProt P54577).
T4 sequence (P54577 whole entry): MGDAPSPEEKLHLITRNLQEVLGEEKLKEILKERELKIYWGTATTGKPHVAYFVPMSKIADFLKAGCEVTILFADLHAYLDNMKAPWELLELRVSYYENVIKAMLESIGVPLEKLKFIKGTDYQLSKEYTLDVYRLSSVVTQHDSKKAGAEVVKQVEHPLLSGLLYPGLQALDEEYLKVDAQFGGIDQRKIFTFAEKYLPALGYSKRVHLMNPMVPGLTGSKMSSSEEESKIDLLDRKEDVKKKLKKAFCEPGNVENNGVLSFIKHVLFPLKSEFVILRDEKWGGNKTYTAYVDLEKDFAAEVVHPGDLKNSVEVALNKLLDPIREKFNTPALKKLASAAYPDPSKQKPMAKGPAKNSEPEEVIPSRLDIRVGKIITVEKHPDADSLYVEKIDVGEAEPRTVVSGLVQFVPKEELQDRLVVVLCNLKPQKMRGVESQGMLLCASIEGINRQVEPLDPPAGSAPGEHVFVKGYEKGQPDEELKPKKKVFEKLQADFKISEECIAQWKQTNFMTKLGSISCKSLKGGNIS
Also: in the data inactive means no Kd found up to 30 µM.

Sequence of ATP-dependent RNA helicase DDX3X (O00571 whole entry): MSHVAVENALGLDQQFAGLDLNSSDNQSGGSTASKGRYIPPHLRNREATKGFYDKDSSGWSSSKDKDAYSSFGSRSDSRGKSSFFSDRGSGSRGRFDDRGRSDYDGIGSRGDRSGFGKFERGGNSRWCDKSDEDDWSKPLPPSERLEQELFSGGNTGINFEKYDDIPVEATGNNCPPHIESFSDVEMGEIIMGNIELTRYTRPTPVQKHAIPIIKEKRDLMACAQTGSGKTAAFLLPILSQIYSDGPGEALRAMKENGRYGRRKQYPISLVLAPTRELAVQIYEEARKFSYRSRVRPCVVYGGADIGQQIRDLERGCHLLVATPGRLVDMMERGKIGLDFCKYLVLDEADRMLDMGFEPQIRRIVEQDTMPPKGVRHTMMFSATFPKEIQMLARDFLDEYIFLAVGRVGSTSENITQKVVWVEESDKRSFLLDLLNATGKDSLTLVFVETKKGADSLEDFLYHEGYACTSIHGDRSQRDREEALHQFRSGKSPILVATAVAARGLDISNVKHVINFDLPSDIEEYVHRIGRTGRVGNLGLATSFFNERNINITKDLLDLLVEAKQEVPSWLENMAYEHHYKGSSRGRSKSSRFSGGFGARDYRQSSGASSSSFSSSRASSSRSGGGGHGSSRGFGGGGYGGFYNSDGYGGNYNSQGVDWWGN
Sequence of Serine/threonine-protein kinase MRCK beta (Q9Y5S2 whole entry): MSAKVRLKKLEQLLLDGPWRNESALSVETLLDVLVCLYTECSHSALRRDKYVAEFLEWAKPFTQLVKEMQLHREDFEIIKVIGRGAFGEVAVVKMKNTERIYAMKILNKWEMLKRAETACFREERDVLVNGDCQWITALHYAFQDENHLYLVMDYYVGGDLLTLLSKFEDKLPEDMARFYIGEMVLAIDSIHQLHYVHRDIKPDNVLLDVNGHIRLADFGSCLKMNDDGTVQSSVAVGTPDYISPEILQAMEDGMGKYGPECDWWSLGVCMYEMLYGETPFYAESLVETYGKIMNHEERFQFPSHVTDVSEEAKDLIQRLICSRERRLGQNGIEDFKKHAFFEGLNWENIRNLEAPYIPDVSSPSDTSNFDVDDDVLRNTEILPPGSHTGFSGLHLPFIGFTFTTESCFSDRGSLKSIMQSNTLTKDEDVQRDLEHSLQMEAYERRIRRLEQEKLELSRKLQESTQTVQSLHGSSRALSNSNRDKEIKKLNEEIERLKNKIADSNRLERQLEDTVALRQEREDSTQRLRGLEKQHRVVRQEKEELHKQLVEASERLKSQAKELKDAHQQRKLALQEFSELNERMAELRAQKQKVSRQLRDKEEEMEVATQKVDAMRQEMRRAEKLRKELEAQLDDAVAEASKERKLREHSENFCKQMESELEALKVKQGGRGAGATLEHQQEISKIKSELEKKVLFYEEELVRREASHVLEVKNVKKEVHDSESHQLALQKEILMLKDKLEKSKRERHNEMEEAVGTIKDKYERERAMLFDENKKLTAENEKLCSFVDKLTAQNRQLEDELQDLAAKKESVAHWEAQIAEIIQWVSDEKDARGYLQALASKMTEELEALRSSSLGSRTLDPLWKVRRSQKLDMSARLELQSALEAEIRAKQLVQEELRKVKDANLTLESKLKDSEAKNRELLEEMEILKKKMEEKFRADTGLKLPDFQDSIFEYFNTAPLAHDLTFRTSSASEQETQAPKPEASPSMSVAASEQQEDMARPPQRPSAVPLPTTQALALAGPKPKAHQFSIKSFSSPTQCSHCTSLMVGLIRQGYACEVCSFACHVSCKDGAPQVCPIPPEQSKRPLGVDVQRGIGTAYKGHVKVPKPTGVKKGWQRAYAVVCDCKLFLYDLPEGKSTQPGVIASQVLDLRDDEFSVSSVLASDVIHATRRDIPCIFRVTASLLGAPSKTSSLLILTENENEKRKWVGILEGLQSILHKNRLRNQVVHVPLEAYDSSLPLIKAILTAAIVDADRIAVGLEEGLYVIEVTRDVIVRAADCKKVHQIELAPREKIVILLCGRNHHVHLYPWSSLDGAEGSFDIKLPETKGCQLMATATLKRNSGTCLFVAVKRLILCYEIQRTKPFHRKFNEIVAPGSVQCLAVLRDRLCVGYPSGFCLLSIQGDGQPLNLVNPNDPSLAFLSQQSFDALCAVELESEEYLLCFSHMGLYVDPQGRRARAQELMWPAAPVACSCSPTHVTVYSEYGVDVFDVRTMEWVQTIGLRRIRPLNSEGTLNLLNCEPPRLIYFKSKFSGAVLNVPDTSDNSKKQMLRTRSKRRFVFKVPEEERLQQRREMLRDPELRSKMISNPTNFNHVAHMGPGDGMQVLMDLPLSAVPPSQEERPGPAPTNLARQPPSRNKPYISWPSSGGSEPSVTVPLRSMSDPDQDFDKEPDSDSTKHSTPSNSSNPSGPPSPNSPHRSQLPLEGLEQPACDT
Sequence of Serine/threonine-protein kinase 26 (Q9P289 whole entry): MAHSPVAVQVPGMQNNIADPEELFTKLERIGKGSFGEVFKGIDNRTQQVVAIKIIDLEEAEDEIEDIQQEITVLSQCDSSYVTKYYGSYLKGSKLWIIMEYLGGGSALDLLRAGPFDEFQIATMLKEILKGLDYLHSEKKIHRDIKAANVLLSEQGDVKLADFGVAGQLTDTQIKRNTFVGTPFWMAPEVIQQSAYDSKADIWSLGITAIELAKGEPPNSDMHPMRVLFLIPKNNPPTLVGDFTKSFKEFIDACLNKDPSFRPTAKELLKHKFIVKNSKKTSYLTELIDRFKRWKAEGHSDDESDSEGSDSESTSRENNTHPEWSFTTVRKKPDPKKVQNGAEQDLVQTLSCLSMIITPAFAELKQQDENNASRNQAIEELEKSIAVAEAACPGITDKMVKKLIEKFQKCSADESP
Sequence of Tyrosine-protein kinase JAK1 (P23458 whole entry): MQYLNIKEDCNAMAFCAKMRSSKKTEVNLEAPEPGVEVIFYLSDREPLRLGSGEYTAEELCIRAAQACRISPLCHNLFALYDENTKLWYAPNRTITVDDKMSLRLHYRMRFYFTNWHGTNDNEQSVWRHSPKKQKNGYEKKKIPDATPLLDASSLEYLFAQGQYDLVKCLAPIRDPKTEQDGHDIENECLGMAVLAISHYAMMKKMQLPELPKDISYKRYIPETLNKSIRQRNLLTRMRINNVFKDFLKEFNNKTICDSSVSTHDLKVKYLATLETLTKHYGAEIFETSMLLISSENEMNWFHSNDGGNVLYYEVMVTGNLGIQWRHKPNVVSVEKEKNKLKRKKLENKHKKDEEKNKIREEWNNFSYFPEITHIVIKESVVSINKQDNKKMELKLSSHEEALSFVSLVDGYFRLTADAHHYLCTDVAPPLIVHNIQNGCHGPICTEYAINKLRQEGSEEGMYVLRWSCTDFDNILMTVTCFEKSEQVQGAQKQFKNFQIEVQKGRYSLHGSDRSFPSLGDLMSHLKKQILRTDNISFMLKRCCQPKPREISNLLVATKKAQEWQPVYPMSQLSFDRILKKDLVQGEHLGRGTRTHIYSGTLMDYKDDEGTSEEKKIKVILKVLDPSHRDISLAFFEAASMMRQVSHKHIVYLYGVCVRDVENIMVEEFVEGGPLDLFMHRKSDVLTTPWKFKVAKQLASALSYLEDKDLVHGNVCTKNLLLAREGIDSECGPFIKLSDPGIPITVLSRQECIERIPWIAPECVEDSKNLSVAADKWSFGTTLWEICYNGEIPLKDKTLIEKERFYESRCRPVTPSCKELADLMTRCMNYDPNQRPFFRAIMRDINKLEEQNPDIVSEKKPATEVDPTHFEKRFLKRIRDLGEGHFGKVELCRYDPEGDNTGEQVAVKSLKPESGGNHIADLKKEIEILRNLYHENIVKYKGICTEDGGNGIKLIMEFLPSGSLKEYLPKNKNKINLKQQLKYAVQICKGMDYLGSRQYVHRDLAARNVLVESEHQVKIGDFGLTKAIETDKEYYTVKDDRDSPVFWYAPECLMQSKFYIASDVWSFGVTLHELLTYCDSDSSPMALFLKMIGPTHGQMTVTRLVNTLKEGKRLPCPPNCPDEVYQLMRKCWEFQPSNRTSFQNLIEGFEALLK

Regarding `C=CC(=O)Nc1cccc(Nc2nc(Nc3ccc(N4CCN(C(C)=O)CC4)cc3OC)ncc2C(F)(F)F)c1` [ROCILETINIB], the Kd (in assay [1]; in assay [2]; on Ephrin type-B receptor 3; in assay [3]; in assay [4]; in [5]) was > 30 µM (inactive) each time. In addition, the Kd in assay [6], in assay [7] and in assay [8] was > 30 µM (inactive) in each case.

For the compound `O=c1[nH]c([C@@H]2CCCN2)nc2c1oc1ccc(Cl)cc12`, the Kd (in assay [1]; in assay [2]; on Ephrin type-B receptor 3; in [3]; in [4]; in assay [5]) was > 30 µM (inactive) each time. Also, the Kd in [6], in [7] and in assay [8] was > 30 µM (inactive) in each case.

With `Cc1c(Cn2c(C)nc3c(C(=O)O)cc(N4CCOCC4)cc32)cccc1C(F)(F)F` [GSK-2636771], the Kd (in assay [1]; in [2]; at Ephrin type-B receptor 3; in [3]; in assay [4]; in assay [5]) was > 30 µM (inactive) throughout. In addition, the Kd in assay [6], in assay [7] and in [8] was > 30 µM (inactive) in each case.

For `COc1cc2ncnc(Nc3ccc(O)cc3)c2cc1OC` [WHI-P131], the Kd (in assay [1]; in assay [2]; at Ephrin type-B receptor 3; in assay [3]; in [4]; in [5]) was > 30 µM (inactive) in each case. Besides, the Kd in assay [6], in assay [7] and in assay [8] was > 30 µM (inactive) each time.

Regarding `Cn1c(=O)c(F)c(Nc2ccc(I)cc2F)c2c(=O)n(C[C@@H](O)CO)cnc21` [TAK-733], the Kd (in assay [1]; in assay [2]; at Ephrin type-B receptor 3; in assay [3]; in [4]; in assay [5]) was > 30 µM (inactive) throughout. Moreover, the Kd in assay [6], in [7] and in [8] was > 30 µM (inactive) throughout.

For `S=C(NCc1ccc2c(c1)OCO2)N1CCN(c2ncnc3c2oc2ccccc23)CC1` [AMUVATINIB], the Kd (in [1]; in assay [2]; on Ephrin type-B receptor 3; in assay [3]; in assay [4]; in assay [5]) was > 30 µM (inactive) each time. For the same compound, the Kd in [6], in assay [7] and in [8] was > 30 µM (inactive) each time.

Regarding `C=CC(=O)Nc1cc(Nc2nccc(-c3cn(C)c4ccccc34)n2)c(OC)cc1N(C)CCN(C)C` [OSIMERTINIB], the Kd (in assay [1]; in assay [2]; at Ephrin type-B receptor 3; in [3]; in [4]; in [5]) was > 30 µM (inactive) throughout. The Kd in [6], in assay [7] and in [8] was > 30 µM (inactive) in each case.

As for `COCCN1CCN(Cc2ccc(-c3n[nH]c4c3C(=O)c3c(NC(=O)NN5CCOCC5)cccc3-4)cc2)CC1` [RGB-286638], the Kd (commonly the free concentration of one partner at which half of the binding sites on the other are occupied at equilibrium, for simple one-to-one binding) in [1] was 1.02 µM (active); in [2] it was > 30 µM (inactive); at Ephrin type-B receptor 3, > 30 µM (inactive); in assay [3], 1.9 µM (active); in assay [4], 0.139 µM (active); in assay [5], > 30 µM (inactive). Besides, the Kd was 1.05 µM (active) in assay [6], > 30 µM (inactive) in assay [7] and > 30 µM (inactive) in assay [8].

Consider `CC(C)(O)CC(=O)NCCn1ccc2ncnc(Nc3ccc(Oc4cccc(C(F)(F)F)c4)c(Cl)c3)c21` [TAK-285], for which the Kd (in assay [1]; in [2]; at Ephrin type-B receptor 3; in assay [3]; in [4]; in assay [5]) was > 30 µM (inactive) throughout. Also, the Kd in assay [6], in assay [7] and in [8] was > 30 µM (inactive) throughout.

With `C[C@@H]1COC(Nc2ccc3ncnc(Nc4ccc(OCc5nccs5)c(Cl)c4)c3c2)=N1` [VARLITINIB], the Kd (in assay [1]; in assay [2]; on Ephrin type-B receptor 3; in assay [3]; in assay [4]; in assay [5]) was > 30 µM (inactive) in each case. Moreover, the Kd in assay [6], in assay [7] and in assay [8] was > 30 µM (inactive) in each case.

Turning to `O=C(NC[C@H](O)CO)c1ccncc1Nc1ccc(I)cc1F` [PIMASERTIB], the Kd (in assay [1]; in [2]; on Ephrin type-B receptor 3; in assay [3]; in assay [4]; in [5]) was > 30 µM (inactive) throughout. Also, the Kd in [6], in [7] and in assay [8] was > 30 µM (inactive) in each case.
